Columns and labels:
[1] = target: T1, human TLR7 (Homo sapiens, UniProt Q9NYK1); test: HEK-Blue hTLR7 NF-κB/AP-1 SEAP reporter cell assay; type: cell-based; conditions: HEK-Blue hTLR7 reporter cells, 10 μg/mL to 10 pg/ml, 24 hours, OD at 655 nm; FIGS. 1A, 1B
T1 construct: host or cells: HEK293 (HEK-Blue hTLR7)
T1 sequence (Q9NYK1 27-1049): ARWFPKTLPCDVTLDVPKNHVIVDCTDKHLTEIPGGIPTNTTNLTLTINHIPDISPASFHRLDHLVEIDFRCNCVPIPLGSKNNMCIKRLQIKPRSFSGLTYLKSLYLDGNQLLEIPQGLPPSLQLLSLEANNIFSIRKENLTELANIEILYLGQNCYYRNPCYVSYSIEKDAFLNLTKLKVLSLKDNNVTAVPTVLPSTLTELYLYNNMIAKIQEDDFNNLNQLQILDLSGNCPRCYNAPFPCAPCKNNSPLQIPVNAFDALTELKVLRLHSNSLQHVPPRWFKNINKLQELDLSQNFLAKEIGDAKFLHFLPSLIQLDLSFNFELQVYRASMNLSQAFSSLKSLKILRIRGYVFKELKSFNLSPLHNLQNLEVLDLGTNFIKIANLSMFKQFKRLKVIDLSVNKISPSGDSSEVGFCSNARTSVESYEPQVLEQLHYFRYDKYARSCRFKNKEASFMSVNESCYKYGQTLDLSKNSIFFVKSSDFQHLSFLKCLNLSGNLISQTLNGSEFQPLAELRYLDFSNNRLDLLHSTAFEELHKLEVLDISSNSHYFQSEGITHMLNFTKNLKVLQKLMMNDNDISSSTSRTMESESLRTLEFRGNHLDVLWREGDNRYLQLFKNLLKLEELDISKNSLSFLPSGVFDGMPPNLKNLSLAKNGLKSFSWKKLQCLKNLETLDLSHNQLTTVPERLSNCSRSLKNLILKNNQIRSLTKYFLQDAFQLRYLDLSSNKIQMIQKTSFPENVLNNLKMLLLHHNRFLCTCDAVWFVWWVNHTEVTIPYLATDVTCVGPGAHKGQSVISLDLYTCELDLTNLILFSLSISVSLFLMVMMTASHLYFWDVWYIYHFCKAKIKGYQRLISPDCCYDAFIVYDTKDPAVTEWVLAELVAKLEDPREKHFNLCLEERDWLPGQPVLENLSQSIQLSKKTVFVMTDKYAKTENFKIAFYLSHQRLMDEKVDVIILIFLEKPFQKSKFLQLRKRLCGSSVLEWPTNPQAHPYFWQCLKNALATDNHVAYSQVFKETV
Experimental: (§1) Some conjugated compounds of the invention were tested for their ability to activate TLR7 and TLR2 receptor signaling. Cell-based assays were carried out using TLR7 and TLR2 reporter cell lines (InvivoGen). The reporter cell lines are engineered HEK293 cells, a human embryonic kidney cell line (ATCC, CRL-1573) that stably express either murine TLR7 (HEK-Blue™ mTLR7) or human TLR7 (HEK-Blue™ hTLR7) or murine TLR2 (HEK-Blue™ mTLR2) or human TLR2 (HEK-Blue™ hTLR2) with an NF-κB-inducible secreted embryonic alkaline phosphatase (SEAP) as the reporter gene. The SEAP reporter gene is placed under the control of the NF-κB and AP-inducible promoter. Stimulation with the corresponding TLR ligand activates NF-κB and AP-1, which induces the production of SEAP. Detection of SEAP is measured following culturing cells in HEK-Blue™ Detection media (InvivoGen). HEK-Blue™ Detection contains a SEAP substrate, which upon hydrolysis by SEAP produces a colorimetric change allowing for detection of SEAP as the protein is secreted. […] These assays were carried out using RAW-Blue™ Cells (InvivoGen), derived from RAW 264.7 mouse leukemic monocytic macrophage cell line (ATCC, CRL 2278) stably overexpressing a NF-κB/AP-1 inducible SEAP reporter constructs.
(§2) To perform the assay, cells were seeded on 96 well microliter plates at 50,000 or 100,000 cells per well for HEK-Blue™ Cells and RAW-Blue™ Cells respectively, and cultured at 37° C. in the presence of the conjugated compounds. The conjugated compounds were prepared as follows: First, stock solutions of the small molecule conjugated compounds of the invention were prepared in ethanol or water to a concentration of 10 mg/ml. A working dilution of the conjugated TLR7-TLR2 small molecules was made up in water and added to cells at a final range of concentrations from 10 μg/mL to 10 pg/ml. The working dilutions of the conjugated TLR7-TLR2 small molecules as the stated concentrations were directly added to the reporter cell lines and incubated at 37° C. for 24 hours. After 24 hours of incubation, the effect on reporter gene activity was determined by reading the OD at 655 nm using iMark™ Microplate Reader (BIO-RAD).
(§3) The conjugated compounds were tested alone for their ability to specifically activate TLR7 and TLR2, alongside the known TLR7 activators R848 or CL264 (InvivoGen) and the TLR2 agonists Pam2CSK4 or Pam3CSK4 (InvivoGen). The specificity of the TLR activity was determined by use of reporter cell lines to the other TLRs (data not shown). […] The molecules show a tendency to activate mouse TLR7 with greater sensitivity than human TLR7. […] Furthermore, dose-dependent responses of the conjugated compounds indicate significant TLR activities of TLR7 and TLR2 compared to the corresponding controls.

[2] = target: T2, murine TLR7 (Mus musculus, UniProt P58681); test: HEK-Blue mTLR7 NF-κB/AP-1 SEAP reporter cell assay; type: cell-based; conditions: HEK-Blue mTLR7 reporter cells, 10 μg/mL to 10 pg/ml, 24 hours, OD at 655 nm; FIGS. 2A, 2B
T2 construct: host or cells: HEK293 (HEK-Blue mTLR7)
T2 sequence (P58681 27-1050): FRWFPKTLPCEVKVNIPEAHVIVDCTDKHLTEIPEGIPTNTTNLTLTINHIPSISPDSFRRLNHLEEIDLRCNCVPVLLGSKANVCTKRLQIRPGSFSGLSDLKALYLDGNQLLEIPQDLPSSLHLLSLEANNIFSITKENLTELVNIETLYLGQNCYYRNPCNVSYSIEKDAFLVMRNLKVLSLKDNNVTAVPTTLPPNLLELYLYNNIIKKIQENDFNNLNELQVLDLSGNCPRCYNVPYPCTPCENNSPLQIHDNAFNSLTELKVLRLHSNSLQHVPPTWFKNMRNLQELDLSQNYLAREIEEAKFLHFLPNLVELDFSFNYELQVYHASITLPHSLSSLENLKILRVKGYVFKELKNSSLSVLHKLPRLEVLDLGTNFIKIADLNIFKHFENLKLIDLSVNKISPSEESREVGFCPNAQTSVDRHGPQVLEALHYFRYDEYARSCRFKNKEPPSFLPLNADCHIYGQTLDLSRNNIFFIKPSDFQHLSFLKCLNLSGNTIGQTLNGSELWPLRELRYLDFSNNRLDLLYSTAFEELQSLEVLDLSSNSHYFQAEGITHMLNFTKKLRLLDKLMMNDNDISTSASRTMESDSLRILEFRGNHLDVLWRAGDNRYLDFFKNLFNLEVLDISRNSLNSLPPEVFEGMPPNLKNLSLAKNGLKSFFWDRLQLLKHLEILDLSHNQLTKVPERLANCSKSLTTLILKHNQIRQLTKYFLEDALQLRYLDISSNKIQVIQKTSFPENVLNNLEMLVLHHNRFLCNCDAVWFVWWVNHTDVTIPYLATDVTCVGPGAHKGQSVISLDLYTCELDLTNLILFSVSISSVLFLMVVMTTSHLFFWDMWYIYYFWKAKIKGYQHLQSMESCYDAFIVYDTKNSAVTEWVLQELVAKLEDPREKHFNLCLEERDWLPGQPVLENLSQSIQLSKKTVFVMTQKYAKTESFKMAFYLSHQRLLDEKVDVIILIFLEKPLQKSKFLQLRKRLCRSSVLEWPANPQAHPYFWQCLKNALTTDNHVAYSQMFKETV
Experimental: as §1, §2, §3

[3] = target: T3, human TLR2 (Homo sapiens, UniProt O60603); test: HEK-Blue hTLR2 NF-κB/AP-1 SEAP reporter cell assay; type: cell-based; conditions: HEK-Blue hTLR2 reporter cells, 10 μg/mL to 10 pg/ml, 24 hours, OD at 655 nm; FIGS. 3A, 3B
T3 construct: host or cells: HEK293 (HEK-Blue hTLR2)
Experimental: as §1, §2, §3

[4] = target: T4, murine TLR2 (Mus musculus, UniProt Q9QUN7); test: HEK-Blue mTLR2 NF-κB/AP-1 SEAP reporter cell assay; type: cell-based; conditions: HEK-Blue mTLR2 reporter cells, 10 μg/mL to 10 pg/ml, 24 hours, OD at 655 nm; FIG. 4
T4 construct: host or cells: HEK293 (HEK-Blue mTLR2)
Experimental: as §1, §2, §3

[5] = system: NF-κB in RAW-Blue™ Cells (RAW 264.7, endogenous TLR7 and TLR2); test: RAW-Blue Cells NF-κB/AP-1 inducible SEAP reporter assay; type: cell-based, mouse; conditions: murine monocytic macrophage cell line RAW 264.7, 24 hours, OD at 655 nm; FIGS. 5A, 5B
Experimental: as §1, §2, §3

T4 sequence (Q9QUN7 25-784): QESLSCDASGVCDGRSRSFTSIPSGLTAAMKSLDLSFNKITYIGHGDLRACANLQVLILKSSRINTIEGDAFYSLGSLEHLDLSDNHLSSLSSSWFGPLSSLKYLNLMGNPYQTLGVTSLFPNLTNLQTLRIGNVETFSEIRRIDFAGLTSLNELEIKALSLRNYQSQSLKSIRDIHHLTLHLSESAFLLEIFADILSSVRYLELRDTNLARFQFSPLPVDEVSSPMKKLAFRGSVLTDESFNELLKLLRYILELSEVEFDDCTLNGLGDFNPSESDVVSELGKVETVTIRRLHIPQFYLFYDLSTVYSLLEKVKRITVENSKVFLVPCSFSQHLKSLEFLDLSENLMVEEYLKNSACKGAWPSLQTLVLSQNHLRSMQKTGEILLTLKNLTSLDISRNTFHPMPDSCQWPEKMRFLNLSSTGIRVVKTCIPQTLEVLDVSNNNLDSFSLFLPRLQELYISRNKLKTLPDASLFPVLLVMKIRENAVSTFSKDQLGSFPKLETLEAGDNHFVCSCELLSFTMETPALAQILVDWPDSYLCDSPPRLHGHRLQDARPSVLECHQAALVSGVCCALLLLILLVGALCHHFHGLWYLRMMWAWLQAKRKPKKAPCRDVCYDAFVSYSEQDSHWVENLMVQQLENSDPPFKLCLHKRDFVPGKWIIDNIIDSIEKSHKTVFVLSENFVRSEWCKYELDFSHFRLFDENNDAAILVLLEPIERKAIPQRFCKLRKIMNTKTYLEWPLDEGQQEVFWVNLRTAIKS
T3 sequence (O60603 21-784): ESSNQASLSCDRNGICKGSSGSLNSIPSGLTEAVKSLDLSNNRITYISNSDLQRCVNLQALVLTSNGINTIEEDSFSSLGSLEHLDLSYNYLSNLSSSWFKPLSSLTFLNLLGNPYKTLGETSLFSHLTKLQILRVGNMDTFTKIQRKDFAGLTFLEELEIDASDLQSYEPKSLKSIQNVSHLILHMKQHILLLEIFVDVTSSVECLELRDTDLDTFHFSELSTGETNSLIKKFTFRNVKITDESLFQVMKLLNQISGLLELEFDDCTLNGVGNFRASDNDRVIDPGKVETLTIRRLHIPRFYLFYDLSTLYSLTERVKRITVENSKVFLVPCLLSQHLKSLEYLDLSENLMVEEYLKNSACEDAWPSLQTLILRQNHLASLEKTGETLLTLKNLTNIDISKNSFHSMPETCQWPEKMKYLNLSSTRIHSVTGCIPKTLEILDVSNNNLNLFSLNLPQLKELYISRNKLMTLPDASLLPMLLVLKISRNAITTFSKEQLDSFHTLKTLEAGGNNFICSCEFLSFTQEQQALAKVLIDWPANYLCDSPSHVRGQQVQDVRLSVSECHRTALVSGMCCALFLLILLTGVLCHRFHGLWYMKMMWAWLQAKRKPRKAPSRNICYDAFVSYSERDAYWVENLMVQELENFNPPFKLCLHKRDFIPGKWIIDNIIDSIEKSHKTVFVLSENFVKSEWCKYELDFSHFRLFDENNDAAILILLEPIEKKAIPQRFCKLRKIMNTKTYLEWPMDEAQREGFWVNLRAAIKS

Row | ability to activate TLR7 receptors (human TLR7) [1] | ability to activate TLR7 receptors (murine TLR7) [2] | ability to activate TLR2 receptor (human TLR2) [3] | ability to activate TLR2 receptor (murine TLR2) [4] | Compound | induction of NF-κB in RAW-Blue cells [5]
1 | activate TLR7 receptors | activate TLR7 receptors | activate TLR2 receptor | activate TLR2 receptor | CCCCCCCCCCCCCC(=O)OCCSC[C@H](N)C(=O)Nc1ccc(Cn2c(O)nc3c(N)nc(NCCCC)nc32)cc1 [CL555, (R)-2-(2-amino-3-(4-((6-amino-2-(butylamino)-8-hydroxy-9H-purin-9-yl)methyl)phenylamino)-3-oxopropylthio)ethyl tetradecanoate] | activate NF-κB
2 | activate TLR7 receptors | activate TLR7 receptors | activate TLR2 receptor | activate TLR2 receptor | CCCCCCCCCCCCCCCCCC(=O)OCCSC[C@H](N)C(=O)N[C@@H](CO)C(=O)Nc1ccc(Cn2c(O)nc3c(N)nc(NCCCC)nc32)cc1 [CL560, 2-((R)-2-amino-3-((S)-1-(4-((6-amino-2-(butylamino)-8-hydroxy-9H-purin-9-yl)methyl)phenylamino)-3-hydroxy-1-oxopropan-2-ylamino)-3-oxopropylthio)ethyl stearate] | activate NF-κB
3 | activate TLR7 receptors | activate TLR7 receptors | activate TLR2 receptor | activate TLR2 receptor | CCCCCCCCCCCCCCCC(=O)OCCSC[C@H](N)C(=O)N[C@@H](CO)C(=O)Nc1ccc(Cn2c(O)nc3c(N)nc(NCCCC)nc32)cc1 [CL559, 2-((R)-2-amino-3-((S)-1-(4-((6-amino-2-(butylamino)-8-hydroxy-9H-purin-9-yl)methyl)phenylamino)-3-hydroxy-1-oxopropan-2-ylamino)-3-oxopropylthio)ethyl palmitate] | activate NF-κB
4 | activate TLR7 receptors | activate TLR7 receptors | activate TLR2 receptor |  | CCCCCCCCCCCCCCCC(=O)N[C@@H](CSCC(COC(=O)CCCCCCCCCCCCCCC)OC(=O)CCCCCCCCCCCCCCC)C(=O)Nc1ccc(Cn2c(O)nc3c(N)nc(NCCCC)nc32)cc1 (mixture of isomers) [CL446, (R)-3-(3-(4-((6-amino-2-(butylamino)-8-hydroxy-9H-purin-9-yl)methyl)phenylamino)-3-oxo-2-palmitamidopropylthio)propane-1,2-diyl dipalmitate] | activate NF-κB
5 | activate TLR7 receptors | activate TLR7 receptors | activate TLR2 receptor | activate TLR2 receptor | CCCCCCCCCCCCCC(=O)OCCSC[C@H](N)C(=O)N[C@@H](CCC(=O)Nc1ccc(Cn2c(O)nc3c(N)nc(NCCCC)nc32)cc1)C(=O)OC [CL572, 2-((R)-2-amino-3-((S)-5-(4-((6-amino-2-(butylamino)-8-hydroxy-9H-purin-9-yl)methyl)phenylamino)-1-methoxy-1,5-dioxopentan-2-ylamino)-3-oxopropylthio)ethyl tetradecanoate] | 
6 | activate TLR7 receptors | activate TLR7 receptors | activate TLR2 receptor |  | CCCCCCCCCCCCCCCC(=O)OCC(CSC[C@H](N)C(=O)N[C@@H](CO)C(=O)Nc1ccc(Cn2c(O)nc3c(N)nc(NCCCC)nc32)cc1)OC(=O)CCCCCCCCCCCCCCC (stereo partly drawn) [CL453, 3-((R)-2-amino-3-((S)-1-(4-((6-amino-2-(butylamino)-8-hydroxy-9H-purin-9-yl)methyl)phenylamino)-3-hydroxy-1-oxopropan-2-ylamino)-3-oxopropylthio)propane-1,2-diyl dipalmitate] | activate NF-κB

Source: patent US9567336B2, “Conjugated TLR7 and/or TLR8 and TLR2 agonists” (CAYLA, priority 2012, dated 2017)
